Measurements taken from ChEMBL document CHEMBL1201862, “PubChem BioAssay data set” (2004).
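Briefly, cells in 96-well plates were exposed to five compound concentrations for 48 h, and endpoints were estimated by linear interpolation. GI50 marks 50% less growth.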 The source made the active and inactive calls. No stated cut-off is given here; in the data, active = GI50 up to about 1.1 µM and inactive = higher.

Key:
Test in all cases: DTP human tumour cell line panel, 48 h
CAKI-1 = system: CAKI-1
COLO 205 = system: COLO 205
HCT-116 = system: HCT-116
HCT-15 = system: HCT-15
HOP-92 = system: HOP-92
Hs-578T = system: Hs-578T
IGROV-1 = system: IGROV-1
MCF7 = system: MCF7
MDA-MB-435 = system: MDA-MB-435
MDA-N = system: MDA-N
MOLT-4 = system: MOLT-4
Malme-3M = system: Malme-3M
OVCAR-3 = system: OVCAR-3
OVCAR-5 = system: OVCAR-5
PC-3 = system: PC-3
RXF 393 = system: RXF 393
SR = system: SR
T47D = system: T47D
U-251 = system: U-251
UACC-62 = system: UACC-62

## COC(=O)C1=C(C)NC2=C(C(=O)c3ccccc32)C1c1cn(-c2ccccc2)nc1-c1ccccc1 (stereo not given)
CAKI-1
  GI50: > 100 µM (inactive)
COLO 205
  GI50: > 100 µM (inactive)
HCT-116
  GI50: 12.1 µM (inactive)
HCT-15
  GI50: 30.1 µM
HOP-92
  GI50: 18.3 µM (inactive)
Hs-578T
  GI50: > 100 µM (inactive)
IGROV-1
  GI50: 6.24 µM (inactive)
MCF7
  GI50: 26.8 µM (inactive)
MDA-MB-435
  GI50: 16.6 µM (inactive)
MDA-N
  GI50: > 61.7 µM (inactive)
MOLT-4
  GI50: 2.96 µM (inactive)
Malme-3M
  GI50: > 84.7 µM (inactive)
OVCAR-3
  GI50: > 48.1 µM (inactive)
OVCAR-5
  GI50: > 100 µM (inactive)
PC-3
  GI50: 4.36 µM (inactive)
RXF 393
  GI50: > 44.8 µM (inactive)
SR
  GI50: 2 µM (inactive)
T47D
  GI50: 20.3 µM (inactive)
U-251
  GI50: 15.5 µM (inactive)
UACC-62
  GI50: > 42.6 µM (inactive)

## C=C(C(=O)O)[C@@H]1C[C@@H]2O[C@H]1CC(C)=CCC/C(C)=C/CC[C@@]2(C)O
CAKI-1
  GI50: > 100 µM (inactive)
COLO 205
  GI50: > 100 µM (inactive)
HCT-116
  GI50: > 100 µM (inactive)
HCT-15
  GI50: > 100 µM
HOP-92
  GI50: 93.5 µM (inactive)
Hs-578T
  GI50: > 100 µM (inactive)
IGROV-1
  GI50: > 100 µM (inactive)
MCF7
  GI50: > 100 µM (inactive)
MDA-MB-435
  GI50: > 100 µM (inactive)
MDA-N
  GI50: > 100 µM (inactive)
MOLT-4
  GI50: > 100 µM (inactive)
Malme-3M
  GI50: > 100 µM (inactive)
OVCAR-3
  GI50: > 100 µM (inactive)
OVCAR-5
  GI50: > 100 µM (inactive)
PC-3
  GI50: > 100 µM (inactive)
RXF 393
  GI50: > 100 µM (inactive)
SR
  GI50: > 100 µM (inactive)
T47D
  GI50: > 100 µM (inactive)
U-251
  GI50: > 100 µM (inactive)
UACC-62
  GI50: > 100 µM (inactive)

## CCOP(=O)(OCC)/C(C#N)=C(\C)c1ccco1
CAKI-1
  GI50: > 10 µM (inactive)
COLO 205
  GI50: > 10 µM (inactive)
HCT-116
  GI50: > 10 µM (inactive)
HCT-15
  GI50: > 10 µM
HOP-92
  GI50: > 10 µM (inactive)
Hs-578T
  GI50: > 10 µM (inactive)
IGROV-1
  GI50: > 10 µM (inactive)
MCF7
  GI50: > 10 µM (inactive)
MDA-MB-435
  GI50: > 10 µM (inactive)
MDA-N
  GI50: > 10 µM (inactive)
MOLT-4
  GI50: > 10 µM (inactive)
Malme-3M
  GI50: > 10 µM (inactive)
OVCAR-3
  GI50: > 10 µM (inactive)
OVCAR-5
  GI50: > 10 µM (inactive)
PC-3
  GI50: > 10 µM (inactive)
RXF 393
  GI50: > 10 µM (inactive)
SR
  GI50: > 10 µM (inactive)
T47D
  GI50: > 10 µM (inactive)
U-251
  GI50: > 10 µM (inactive)
UACC-62
  GI50: > 10 µM (inactive)

## COC(=O)[C@H]1[C@H](C(=O)OC)[C@@H](C)c2c(ccc3c2[nH]c2ccccc23)[C@@H]1C
CAKI-1
  GI50: 68.4 µM (inactive)
COLO 205
  GI50: 66.7 µM (inactive)
HCT-116
  GI50: 34.6 µM (inactive)
HCT-15
  GI50: > 100 µM
HOP-92
  GI50: 37.9 µM (inactive)
Hs-578T
  GI50: 31.1 µM (inactive)
IGROV-1
  GI50: 71.9 µM (inactive)
MCF7
  GI50: 43.4 µM (inactive)
MDA-MB-435
  GI50: > 100 µM (inactive)
MDA-N
  GI50: 90.8 µM (inactive)
MOLT-4
  GI50: 0.3 µM (active)
Malme-3M
  GI50: 49.8 µM (inactive)
OVCAR-3
  GI50: 69.2 µM (inactive)
OVCAR-5
  GI50: > 100 µM (inactive)
PC-3
  GI50: 37.4 µM (inactive)
RXF 393
  GI50: 14.1 µM (inactive)
SR
  GI50: 0.521 µM (active)
T47D
  GI50: 13 µM (inactive)
U-251
  GI50: 62.1 µM (inactive)
UACC-62
  GI50: > 100 µM (inactive)

## S=C(Nc1cccc(C2(N3CCCCC3)CCCCC2)c1)Nc1cccc(C2(N3CCCCC3)CCCCC2)c1
CAKI-1
  GI50: 42 µM (inactive)
COLO 205
  GI50: 17.1 µM (inactive)
HCT-116
  GI50: 20.8 µM (inactive)
HCT-15
  GI50: 32.2 µM
HOP-92
  GI50: 10.3 µM (inactive)
Hs-578T
  GI50: 38.9 µM (inactive)
IGROV-1
  GI50: 54.5 µM (inactive)
MCF7
  GI50: 31.3 µM (inactive)
MDA-MB-435
  GI50: 16 µM (inactive)
MDA-N
  GI50: 17.6 µM (inactive)
MOLT-4
  GI50: 13.5 µM (inactive)
Malme-3M
  GI50: 20.7 µM (inactive)
OVCAR-3
  GI50: 21.8 µM (inactive)
OVCAR-5
  GI50: 66.4 µM (inactive)
PC-3
  GI50: 26.9 µM (inactive)
RXF 393
  GI50: 13.6 µM (inactive)
SR
  GI50: 13.6 µM (inactive)
T47D
  GI50: 19.5 µM (inactive)
U-251
  GI50: 23.4 µM (inactive)
UACC-62
  GI50: 18.9 µM (inactive)

## COc1ccc2cc(-c3nc(N)nc(N4N=C(C)CC4(C)C)n3)c(=N)oc2c1
CAKI-1
  GI50: 17.5 µM (inactive)
COLO 205
  GI50: 16.6 µM (inactive)
HCT-116
  GI50: 19.1 µM (inactive)
HCT-15
  GI50: 14.8 µM
HOP-92
  GI50: 19.7 µM (inactive)
Hs-578T
  GI50: 23.2 µM (inactive)
IGROV-1
  GI50: 14.8 µM (inactive)
MCF7
  GI50: 16.7 µM (inactive)
MDA-MB-435
  GI50: 18.5 µM (inactive)
MDA-N
  GI50: 17.1 µM (inactive)
MOLT-4
  GI50: 11.7 µM (inactive)
Malme-3M
  GI50: 16.5 µM (inactive)
OVCAR-3
  GI50: 15.2 µM (inactive)
OVCAR-5
  GI50: 18.7 µM (inactive)
PC-3
  GI50: 16.8 µM (inactive)
RXF 393
  GI50: 23.4 µM (inactive)
SR
  GI50: 13.9 µM (inactive)
T47D
  GI50: 15.4 µM (inactive)
U-251
  GI50: 18.8 µM (inactive)
UACC-62
  GI50: 17.6 µM (inactive)

## CCN(CC)CCOC(=O)Cc1cccc2c(=O)cc(-c3ccccc3)oc12
CAKI-1
  GI50: 13.6 µM (inactive)
COLO 205
  GI50: 38.4 µM (inactive)
HCT-116
  GI50: 48.3 µM (inactive)
HCT-15
  GI50: 18.5 µM
HOP-92
  GI50: 21.7 µM (inactive)
Hs-578T
  GI50: 28.3 µM (inactive)
IGROV-1
  GI50: 44.6 µM (inactive)
MCF7
  GI50: 54.1 µM (inactive)
MDA-MB-435
  GI50: 55.1 µM (inactive)
MDA-N
  GI50: 22.3 µM (inactive)
MOLT-4
  GI50: 42.9 µM (inactive)
Malme-3M
  GI50: 39.3 µM (inactive)
OVCAR-3
  GI50: 52.8 µM (inactive)
OVCAR-5
  GI50: 57.9 µM (inactive)
PC-3
  GI50: 49.3 µM (inactive)
RXF 393
  GI50: 41.5 µM (inactive)
SR
  GI50: 24.4 µM (inactive)
T47D
  GI50: 30.4 µM (inactive)
U-251
  GI50: 50.2 µM (inactive)
UACC-62
  GI50: 29 µM (inactive)

## Cc1ccc(S(=O)(=O)NC(=O)NCC(=O)NCC(=O)O)cc1
CAKI-1
  GI50: > 100 µM (inactive)
COLO 205
  GI50: > 100 µM (inactive)
HCT-116
  GI50: > 100 µM (inactive)
HCT-15
  GI50: > 100 µM
HOP-92
  GI50: > 100 µM (inactive)
Hs-578T
  GI50: > 100 µM (inactive)
IGROV-1
  GI50: > 100 µM (inactive)
MCF7
  GI50: > 100 µM (inactive)
MDA-MB-435
  GI50: > 100 µM (inactive)
MDA-N
  GI50: > 100 µM (inactive)
MOLT-4
  GI50: > 100 µM (inactive)
Malme-3M
  GI50: > 100 µM (inactive)
OVCAR-3
  GI50: > 100 µM (inactive)
OVCAR-5
  GI50: > 100 µM (inactive)
PC-3
  GI50: > 100 µM (inactive)
RXF 393
  GI50: > 100 µM (inactive)
SR
  GI50: > 100 µM (inactive)
T47D
  GI50: > 100 µM (inactive)
U-251
  GI50: > 100 µM (inactive)
UACC-62
  GI50: > 100 µM (inactive)
